Experimental data from paper PMC12040169 (PLOS Biology, 2025).

Assay: in vitro
Details: human, hela cells, % viability

CS(=O)(=O)c1ccc(CN2CCOC[C@H]2c2nc(-c3ccc(F)cc3)c[nH]2)cc1 [CBK289295]
viability at 28.5 h, 10 µM: 89.4%

O=C(Nc1cc(Cl)ccc1Cl)c1ncn[nH]1 [CBK028834]
viability at 28.5 h, 10 µM: 92.9%

O=C(CC(CN1CCCCC1)C(=O)O)Nc1cccc(O)c1 (stereo not drawn) [CBK286788]
viability at 28.5 h, 10 µM: 114%

CC(C)(C)c1nc(COc2ccc3nonc3c2)no1 [CBK005831]
viability at 28.5 h, 10 µM: 91.8%

Cc1cc(OC(C)C(=O)Nc2nnc[nH]2)ccc1Cl (stereo not drawn) [CBK269731]
viability at 28.5 h, 10 µM: 87%

CN(Cc1ccccc1)Cc1c(C2CCNCC2)[nH]c2ncccc12 [CBK285083]
viability at 28.5 h, 10 µM: 96%

COc1cc(C2C(C(=O)c3cccs3)=C(O)C(=O)N2Cc2cccnc2)ccc1O (stereo not drawn) [CBK264605]
viability at 28.5 h, 10 µM: 110%

O=S(=O)(c1ccc(C(F)(F)F)cc1Cl)N1CCN(Cc2cccc3cccnc23)CC1 [CBK063075]
viability at 28.5 h, 10 µM: 110%

Cc1nc([N+](=O)[O-])c(N2CCN(Cc3ccccc3)CC2)n1Cc1ccccc1 [CBK265675]
viability at 28.5 h, 10 µM: 88.7%

Cc1nn(CCC(=O)NCc2ccco2)c(C)c1Cl [CBK269961]
viability at 28.5 h, 10 µM: 88.8%

O=C(CSc1ncn[nH]1)Nc1ncccn1 [CBK058488]
viability at 28.5 h, 10 µM: 105%

COCCCOc1cc(NC(C)C)ncn1 [CBK115885]
viability at 28.5 h, 10 µM: 92.6%

Cc1onc(-c2ccccc2)c1CNC(=O)c1cncnc1 [CBK144098]
viability at 28.5 h, 10 µM: 90.6%

CCSc1nnc2c3c(sc2c1N)CC(C)(C)OC3 [CBK020374]
viability at 28.5 h, 10 µM: 95.4%

CC(C)(C)c1ccc(OCC(=O)Nn2cnnc2)cc1 [CBK027576]
viability at 28.5 h, 10 µM: 90.3%

CC(=O)N[C@H](C)Cn1nnc2ccccc21 [CBK282246]
viability at 28.5 h, 10 µM: 88%

O=c1[nH]c2ncc(-c3ccco3)nc2n1Cc1ccccn1 [CBK064349]
viability at 28.5 h, 10 µM: 101%

CC(C)(C)Nc1nc(OCC#N)nc(N2CCCCC2)n1 [CBK269483]
viability at 28.5 h, 10 µM: 97.2%

O=C(C1=Cc2ccccc2OC1)N1CCn2cc(C(F)(F)F)nc2C1 [CBK283913]
viability at 28.5 h, 10 µM: 103%

O=C(NCc1ccccn1)c1ccccc1Nc1cccc(C(F)(F)F)c1 [CBK107252]
viability at 28.5 h, 10 µM: 86.3%

O=S1(=O)CCC(c2nnc(C3(c4ccc(Br)cc4)CCOCC3)o2)C1 (stereo not drawn) [CBK305513]
viability at 28.5 h, 10 µM: 115%

CC(=O)NC1(c2ccc(F)cc2)CCN(C(=O)C2CCCCC2)CC1 [CBK283546]
viability at 28.5 h, 10 µM: 96.9%

C=C(C)Cn1c(SCC(C)C)nnc1-c1ccccc1C(=O)O [CBK200093]
viability at 28.5 h, 10 µM: 90.1%

Cc1cc(C)c(NC(=O)C2CCCN2CCCN(C)C)c(C)c1 (stereo not drawn) [CBK278172F]
viability at 28.5 h, 10 µM: 97.1%

Cc1nn(C(C)C)c(C)c1CN(CCO)Cc1cccs1 [CBK283016]
viability at 28.5 h, 10 µM: 86%

O=C(COc1ccc(NS(=O)(=O)c2ccc3c(c2)Cc2ccccc2-3)cc1)N1CCOCC1 [CBK266030]
viability at 28.5 h, 10 µM: 101%

COCc1cccc(-c2ncc(OCCN3CCCC3=O)nc2N)c1 [CBK145110]
viability at 28.5 h, 10 µM: 93.6%

CCCS(=O)(=O)n1c(=O)n(Cc2ccc(OC)cc2)c2ccccc21 [CBK106553]
viability at 28.5 h, 10 µM: 99.7%

O=C(O)c1ccsc1NS(=O)(=O)c1ccc(Oc2ccccc2)cc1 [CBK042259]
viability at 28.5 h, 10 µM: 89.8%

COc1cccc(N2CCN(CC(=O)N3CCC(C(N)=O)CC3)CC2)c1 [CBK202881]
viability at 28.5 h, 10 µM: 106%

CN(C)CCN(C)c1nc(-c2ccc(Oc3ccccc3)cc2)cn2ccnc12 [CBK066469]
viability at 28.5 h, 10 µM: 99.8%

Cc1ccc(N(CC(=O)N/N=C2\C(=O)Nc3ccccc32)S(=O)(=O)c2ccccc2)cc1 [CBK262169]
viability at 28.5 h, 10 µM: 105%

NC(=O)Cn1cc(CNC2(c3ccccc3)CC2)c2ccccc21 [CBK282776]
viability at 28.5 h, 10 µM: 94.9%

O=S(=O)(Cc1ccccc1)NCc1ccccn1 [CBK262241]
viability at 28.5 h, 10 µM: 96.2%

Cc1ccc([N+](=O)[O-])cc1NC(=O)c1cc(S(=O)(=O)N(C)C)c(Cl)cc1Cl [CBK266764]
viability at 28.5 h, 10 µM: 105%

CC(NC(=O)c1ccc(=O)n(C)n1)c1ccc2c(c1)CCCC2 (stereo not drawn) [CBK281416]
viability at 28.5 h, 10 µM: 91.9%

Cc1cc(C)n(CCCNC(=O)Cn2cnc3sc(C)c(C)c3c2=O)n1 [CBK305852]
viability at 28.5 h, 10 µM: 76.2%

Cc1ccccc1Nc1nc(-c2ccc([N+](=O)[O-])cc2)nc2ccccc12 [CBK264803]
viability at 28.5 h, 10 µM: 119%

Oc1cccc(/C=N/c2ccc(Cc3ccc(/N=C/c4cccc(O)c4)cc3)cc2)c1 [CBK261230]
viability at 28.5 h, 10 µM: 103%

Cc1cccnc1NC(=S)NC(=O)c1ccc([N+](=O)[O-])cc1 [CBK263931]
viability at 28.5 h, 10 µM: 92.9%

COc1ccc(C(=O)NCC(=O)NCCOC(=O)c2c(-c3c(F)cccc3Cl)noc2C)cc1 [CBK007386]
viability at 28.5 h, 10 µM: 99.4%

CC1(CC(=O)Nc2ccccc2)NC(=S)N(c2ccccc2)N1 (stereo not drawn) [CBK265534]
viability at 28.5 h, 10 µM: 105%

Cn1ncc(N2CCC(CNC(=O)c3cc(F)ccc3Cl)C2)cc1=O (stereo not drawn) [CBK307286]
viability at 28.5 h, 10 µM: 92.4%

Cc1cccc(-c2nc3ccc(NC(=O)CCC(=O)O)cc3o2)c1 [CBK269773]
viability at 28.5 h, 10 µM: 95.1%

c1ccc(C(NCc2cnc(-c3ncccn3)s2)C2CCC2)cc1 (stereo not drawn) [CBK304013]
viability at 28.5 h, 10 µM: 81.5%
